Measured values: patent US12358886B2, “Heterocyclic compounds for use in the treatment of cancer” (Artios Pharma Limited, priority 2019, dated 2025)

These molecules were tested against Polθ protein (amino acids 2-2590) (Homo sapiens, UniProt O75417) (assay: Polθ full length enzyme potency assay (PicoGreen)). Conditions: Polθ IC50 (nM), full length N-His, C-term FLAG tagged Polθ, PicoGreen fluorescence, 12 point concentration response.
Sequence of Polθ protein (amino acids 2-2590) (O75417 2-2590): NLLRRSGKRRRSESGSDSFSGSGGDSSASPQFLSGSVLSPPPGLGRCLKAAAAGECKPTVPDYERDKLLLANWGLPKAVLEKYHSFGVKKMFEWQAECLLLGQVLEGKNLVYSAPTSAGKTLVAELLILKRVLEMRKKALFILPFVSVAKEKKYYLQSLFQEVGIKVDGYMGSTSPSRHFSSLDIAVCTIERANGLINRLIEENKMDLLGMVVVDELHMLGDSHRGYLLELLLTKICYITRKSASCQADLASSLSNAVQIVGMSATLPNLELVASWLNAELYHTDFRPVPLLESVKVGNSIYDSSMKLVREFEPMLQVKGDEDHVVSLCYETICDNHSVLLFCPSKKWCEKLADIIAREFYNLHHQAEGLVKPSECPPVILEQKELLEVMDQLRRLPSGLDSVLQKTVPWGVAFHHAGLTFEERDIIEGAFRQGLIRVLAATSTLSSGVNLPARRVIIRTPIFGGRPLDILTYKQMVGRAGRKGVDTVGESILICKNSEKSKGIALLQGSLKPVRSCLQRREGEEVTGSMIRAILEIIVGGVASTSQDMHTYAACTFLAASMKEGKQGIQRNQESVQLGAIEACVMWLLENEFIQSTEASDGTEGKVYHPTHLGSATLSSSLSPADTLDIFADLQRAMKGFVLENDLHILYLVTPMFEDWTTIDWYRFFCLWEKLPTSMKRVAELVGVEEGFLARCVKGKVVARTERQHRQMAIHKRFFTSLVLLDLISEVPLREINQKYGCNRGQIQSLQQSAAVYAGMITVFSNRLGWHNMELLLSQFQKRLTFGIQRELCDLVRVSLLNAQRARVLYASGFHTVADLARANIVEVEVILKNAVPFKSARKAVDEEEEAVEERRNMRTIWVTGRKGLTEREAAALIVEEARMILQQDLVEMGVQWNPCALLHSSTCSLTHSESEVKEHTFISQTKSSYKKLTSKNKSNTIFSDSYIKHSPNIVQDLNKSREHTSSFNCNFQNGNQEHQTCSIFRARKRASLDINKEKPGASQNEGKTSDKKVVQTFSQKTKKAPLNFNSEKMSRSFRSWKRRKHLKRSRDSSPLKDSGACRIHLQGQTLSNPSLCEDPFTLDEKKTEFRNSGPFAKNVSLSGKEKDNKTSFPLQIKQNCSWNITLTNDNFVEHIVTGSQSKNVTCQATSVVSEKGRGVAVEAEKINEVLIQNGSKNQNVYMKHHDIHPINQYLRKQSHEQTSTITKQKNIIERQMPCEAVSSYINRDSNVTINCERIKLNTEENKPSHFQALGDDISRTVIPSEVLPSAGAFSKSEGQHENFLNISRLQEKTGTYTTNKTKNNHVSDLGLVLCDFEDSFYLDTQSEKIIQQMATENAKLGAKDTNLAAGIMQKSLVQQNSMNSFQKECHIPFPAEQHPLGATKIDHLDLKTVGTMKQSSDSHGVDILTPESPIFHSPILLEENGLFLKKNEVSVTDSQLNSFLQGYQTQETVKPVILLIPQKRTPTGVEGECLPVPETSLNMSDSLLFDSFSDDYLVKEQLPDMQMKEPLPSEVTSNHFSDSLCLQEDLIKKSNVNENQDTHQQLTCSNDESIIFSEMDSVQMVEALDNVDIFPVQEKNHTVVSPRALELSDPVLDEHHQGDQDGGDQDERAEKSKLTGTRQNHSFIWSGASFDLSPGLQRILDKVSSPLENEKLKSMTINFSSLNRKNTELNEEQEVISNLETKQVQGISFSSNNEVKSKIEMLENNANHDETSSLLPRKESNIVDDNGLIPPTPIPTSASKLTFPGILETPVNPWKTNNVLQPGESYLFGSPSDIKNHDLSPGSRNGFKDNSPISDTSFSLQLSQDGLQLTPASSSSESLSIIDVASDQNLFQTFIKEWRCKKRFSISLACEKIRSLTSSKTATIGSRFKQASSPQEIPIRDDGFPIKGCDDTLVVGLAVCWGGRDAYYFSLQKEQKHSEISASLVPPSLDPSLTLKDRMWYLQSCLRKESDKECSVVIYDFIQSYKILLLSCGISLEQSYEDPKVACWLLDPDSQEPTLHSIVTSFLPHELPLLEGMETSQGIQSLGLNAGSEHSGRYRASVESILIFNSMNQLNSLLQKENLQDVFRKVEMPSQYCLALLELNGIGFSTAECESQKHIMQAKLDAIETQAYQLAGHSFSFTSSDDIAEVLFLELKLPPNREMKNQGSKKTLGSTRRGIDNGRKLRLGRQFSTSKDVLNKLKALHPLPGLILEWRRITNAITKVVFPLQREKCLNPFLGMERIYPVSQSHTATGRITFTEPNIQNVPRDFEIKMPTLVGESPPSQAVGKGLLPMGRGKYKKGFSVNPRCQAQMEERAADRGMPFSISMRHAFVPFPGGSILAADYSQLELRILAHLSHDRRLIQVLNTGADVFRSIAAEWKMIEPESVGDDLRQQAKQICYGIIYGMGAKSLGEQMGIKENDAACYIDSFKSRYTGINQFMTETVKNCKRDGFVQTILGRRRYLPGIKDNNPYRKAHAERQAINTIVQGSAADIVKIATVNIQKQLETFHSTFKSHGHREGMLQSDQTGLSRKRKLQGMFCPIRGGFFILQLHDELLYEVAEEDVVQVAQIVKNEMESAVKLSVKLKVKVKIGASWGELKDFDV

Row | IC50 [nM] | SMILES
1 | 2 | Cc1cc(C(F)(F)F)cc(N2C(=O)NC[C@H]2C(=O)N(C)c2ccc(F)c(Cl)c2F)n1 [Example 158, (S)—N-(3-Chloro-2,4-difluorophenyl)-N-methyl-3-(6-methyl-4-(trifluoromethyl)pyridin-2-yl)-2-oxoimidazolidine-4-carboxamide]
2 | 81 | COc1cc(N(C)C(=O)[C@@H]2COC(=O)N2c2cc(C(F)(F)F)cc(C)n2)ccc1Cl [Example 91, (S)-N-(4-Chloro-3-methoxyphenyl)-N-methyl-3-(6-methyl-4-(trifluoromethyl)pyridin-2-yl)-2-oxooxazolidine-4-carboxamide]
3 | 90 | Cc1cc(C(F)(F)F)cc(N2C(=O)[C@@H](CN(C)C)C[C@@H]2C(=O)N(C)c2ccc(F)c(Cl)c2)n1 (stereo in doubt) [Example 79, (2R,4R)—N-(3-Chloro-4-fluorophenyl)-4-((dimethylamino)methyl)-N-methyl-1-(6-methyl-4-(trifluoromethyl)pyridin-2-yl)-5-oxopyrrolidine-2-carboxamide]
4 | 94 | CNc1cccc(N(C)C(=O)[C@@H]2COC(=O)N2c2cc(C(F)(F)F)cc(C)n2)n1 [Example 176, (S)—N-Methyl-3-(6-methyl-4-(trifluoromethyl)pyridin-2-yl)-N-(6-(methylamino)pyridin-2-yl)-2-oxooxazolidine-4-carboxamide]
5 | 12 | CCc1c(F)ccc(N(C)C(=O)[C@@H]2COC(=O)N2c2cc(C(F)(F)F)cc(C)n2)c1F [Example 108, (S)—N-(3-Ethyl-2,4-difluorophenyl)-N-methyl-3-(6-methyl-4-(trifluoromethyl)pyridin-2-yl)-2-oxooxazolidine-4-carboxamide]
6 | 17 | Cc1cc(C(F)(F)F)cc(N2C(=O)N(CC3(O)CNC3)C[C@H]2C(=O)N(C)c2ccc(F)c(Cl)c2)n1 [Example 225, (S)—N-(3-Chloro-4-fluorophenyl)-1-((3-hydroxyazetidin-3-yl)methyl)-N-methyl-3-(6-methyl-4-(trifluoromethyl)pyridin-2-yl)-2-oxoimidazolidine-4-carboxamide]
7 | 1760 | CCN(C(=O)[C@@H]1C[C@@H](N)CN1c1nc(C)cc(C)c1C#N)c1cccc(C)c1 [Example 40, (2S,4R)-4-Amino-1-(3-cyano-4,6-dimethylpyridin-2-yl)-N-ethyl-N-(m-tolyl)pyrrolidine-2-carboxamide]
8 | 69 | Cc1cc(C(F)(F)F)cc(N2C(=O)[C@H]3OC(C)(C)O[C@H]3[C@H]2C(=O)N(C)c2ccc(F)c(Cl)c2F)n1 [Example 69, (3aS,4S,6aS)—N-(3-Chloro-2,4-difluorophenyl)-N,2,2-trimethyl-5-(6-methyl-4-(trifluoromethyl)-pyridin-2-yl)-6-oxotetrahydro-4H-[1,3]dioxolo[4,5-c]pyrrole-4-carboxamide]
9 | 57 | Cc1cc(C(F)(F)F)c(C#N)c(N2C[C@@H](O)C[C@H]2C(=O)N(C)c2ccc(F)c(CF)c2)n1 [Example 15, (2S,4S)-1-(3-Cyano-6-methyl-4-(trifluoromethyl)pyridin-2-yl)-N-(4-fluoro-3-(fluoromethyl)-phenyl)-4-hydroxy-N-methyl-pyrrolidine-2-carboxamide]
10 | 6 | Cc1cc(C(F)(F)F)cc(N2C(=O)N(CC(C)O)C[C@H]2C(=O)N(C)c2ccc(F)c(Cl)c2)n1 (stereo partly drawn) [Example 160, (4S)—N-(3-Chloro-4-fluorophenyl)-1-(2-hydroxypropyl)-N-methyl-3-(6-methyl-4-(trifluoromethyl)pyridin-2-yl)-2-oxoimidazolidine-4-carboxamide]
11 | 25 | Cc1cc(C(C)C)cc(N2C(=O)OC[C@H]2C(=O)N(C)c2ccc(F)c(Cl)c2)n1 [Example 118, (S)—N-(3-Chloro-4-fluorophenyl)-3-(4-isopropyl-6-methylpyridin-2-yl)-N-methyl-2-oxooxazolidine-4-carboxamide]
12 | 304 | Cc1cc(C(C)C(F)(F)F)cc(N2C(=O)OC[C@H]2C(=O)N(C)c2ccc(F)c(Cl)c2)n1 (stereo partly drawn) [Example 124, (4S)—N-(3-Chloro-4-fluorophenyl)-N-methyl-3-(6-methyl-4-(1,1,1-trifiuoropropan-2-yl)pyridin-2-yl)-2-oxooxazolidine-4-carboxamide]
13 | 136 | CCN(C(=O)[C@@H]1C[C@H](N)C(=O)N1c1cc(C(F)(F)F)cc(C)n1)c1ccc(F)c(Cl)c1 [Example 61, (2S,4S)-4-Amino-N-(3-chloro-4-fluorophenyl)-N-ethyl-1-(6-methyl-4-(trifluoromethyl)pyridin-2-yl)-5-oxopyrrolidine-2-carboxamide]
14 | 26 | Cc1cc(C(F)(F)F)cc(N2C(=O)N(CCN3CCC3)C[C@H]2C(=O)N(C)c2ccc(F)c(Cl)c2F)n1 [Example 201, (S)-1-(2-(Azetidin-1-yl)ethyl)-N-(3-chloro-2,4-difluorophenyl)-N-methyl-3-(6-methyl-4-(trifluoromethyl)-pyridin-2-yl)-2-oxoimidazolidine-4-carboxamide]
15 | 37 | Cc1cc(C(F)(F)F)cc(N2C(=O)NC[C@H]2C(=O)N(C)c2ccc3sccc3n2)n1 [Example 237, (S)—N-Methyl-3-(6-methyl-4-(trifluoromethyl)pyridin-2-yl)-2-oxo-N-(thieno[3,2-b]pyridin-5-yl)imidazolidine-4-carboxamide]
16 | 130 | Cc1cc(C(F)(F)F)c(C#N)c(N2CCC[C@H]2C(=O)N(C)c2cc(Cl)c3ccn(C)c3n2)n1 [Example 244, (S)—N-(4-Chloro-1-methyl-pyrrolo[2,3-b]pyridin-6-yl)-1-[3-cyano-6-methyl-4-(trifluoromethyl)-2-pyridyl]-N-methyl-pyrrolidine-2-carboxamide]

More lines, now with the values behind:

Row | SMILES | IC50 [nM]
17 | CCN(C(=O)[C@H]1C[C@@H](N(C)C)CN1c1nc(C)cc(C)c1C#N)c1cccc(C)c1 (stereo in doubt) [Example 39, (2R,4R)-1-(3-Cyano-4,6-dimethylpyridin-2-yl)-4-(dimethylamino)-N-ethyl-N-(m-tolyl)pyrrolidine-2-carboxamide] | 27
18 | Cc1cc(C)c(C#N)c(N2C[C@@H](O)C[C@H]2C(=O)N(C)c2ccc(F)c(F)c2)n1 [Example 4, (2S,4S)-1-(3-Cyano-4,6-dimethylpyridin-2-yl)-N-(3,4-difluorophenyl)-4-hydroxy-N-methylpyrrolidine-2-carboxamide] | 288
19 | CN(C(=O)[C@@H]1COC(=O)N1c1cc(C(C)(C)C)cc(Cl)n1)c1ccc(F)c(Cl)c1 [Example 122, (S)-3-(4-(tert-Butyl)-6-chloropyridin-2-yl)-N-(3-chloro-4-fluorophenyl)-N-methyl-2-oxooxazolidine-4-carboxamide] | 41
20 | CCN(C(=O)[C@@H]1C[C@H](N(C)[C@H]2CCC[C@H]2O)CN1c1cc(C(F)(F)F)cc(C)n1)c1ccc(F)c(F)c1 [Example 142, (2S,4S)-N-(3,4-Difluorophenyl)-N-ethyl-4-(((1S,2R)-2-hydroxycyclopentyl)(methyl)amino)-1-(6-methyl-4-(trifluoromethyl)pyridin-2-yl)pyrrolidine-2-carboxamide] | 160
21 | Cc1cccc(N(C)C(=O)[C@@H]2C[C@H](O)CN2c2nc(C)cc(C(C)C)c2C#N)c1 [Example 33, (2S,4S)-1-(3-Cyano-4-isopropyl-6-methylpyridin-2-yl)-4-hydroxy-N-methyl-N-(m-tolyl)pyrrolidine-2-carboxamide] | 30
22 | Cc1cc(C(F)(F)F)cc(N2C(=O)NC[C@H]2C(=O)N(C)c2ccc3c(C)n[nH]c3c2)n1 [Example 238, (S)—N-Methyl-N-(3-methyl-1H-indazol-6-yl)-3-(6-methyl-4-(trifluoromethyl)pyridin-2-yl)-2-oxoimidazolidine-4-carboxamide] | 28
23 | Cc1cc(C(F)(F)F)cc(N2C(=O)[C@@H](CO)C[C@H]2C(=O)N(C)c2ccc(F)c(Cl)c2)n1 [Example 77, (2S,4R)—N-(3-Chloro-4-fluorophenyl)-4-(hydroxymethyl)-N-methyl-1-(6-methyl-4-(trifluoromethyl)pyridin-2-yl)-5-oxopyrrolidine-2-carboxamide] | 11
24 | CCN(C(=O)[C@@H]1COC(=O)N1c1cc(C(C)(F)F)cc(C)n1)c1ccc(F)c(Cl)c1 [Example 125, (S)—N-(3-Chloro-4-fluorophenyl)-3-(4-(1,1-difluoroethyl)-6-methylpyridin-2-yl)-N-ethyl-2-oxooxazolidine-4-carboxamide] | 261
25 | CCN(C(=O)[C@@H]1C[C@H](N2CCOC(CO)C2)CN1c1nc(C)cc(C(F)(F)F)c1C#N)c1ccc(Cl)c(Cl)c1 (stereo partly drawn) [Example 148, (2S,4S)-1-(3-Cyano-6-methyl-4-(trifluoromethyl)pyridin-2-yl)-N-(3,4-dichlorophenyl)-N-ethyl-4-(2-(hydroxymethyl)-morpholino)pyrrolidine-2-carboxamide] | 6
26 | [2H]C([2H])([2H])N(C(=O)[C@@H]1[C@H](O)[C@H](O)C(=O)N1c1cc(C(F)(F)F)cc(C)n1)c1ccc(F)c(Cl)c1F [Example 162, (2S,3S,4S)—N-(3-Chloro-2,4-difluorophenyl)-3,4-dihydroxy-N-(methyl-d3)-1-(6-methyl-4-(trifluoromethyl)pyridin-2-yl)-5-oxopyrrolidine-2-carboxamide] | 3
27 | Cc1cc(C(F)(F)F)cc(N2C(=O)N(CC3(O)CCNC3)C[C@H]2C(=O)N(C)c2ccc(F)c(Cl)c2F)n1 (stereo partly drawn) [Example 222, (4S)—N-(3-Chloro-2,4-difluorophenyl)-1-((3-hydroxypyrrolidin-3-yl)methyl)-N-methyl-3-(6-methyl-4-(trifluoromethyl)pyridin-2-yl)-2-oxoimidazolidine-4-carboxamide] | 9

Same assay, conditions: read-out: Polθ IC50; full length N-His, C-term FLAG tagged Polθ, PicoGreen fluorescence, 12 point concentration response

Row | IC50 [nM] | SMILES
28 | 32 | Cc1cc(C(F)(F)F)cc(N2C(=O)OC[C@H]2C(=O)N(C)c2cc(Cl)c(F)cc2F)n1 [Example 98, (S)-N-(5-Chloro-2,4-difluorophenyl)-N-methyl-3-(6-methyl-4-(trifluoromethyl)pyridin-2-yl)-2-oxooxazolidine-4-carboxamide]
29 | 54 | CCN(C(=O)[C@@H]1COC(=O)N1c1cc(C(F)(F)F)cc(C)n1)c1ccc(F)c(Cl)c1 [Example 103, (S)-N-(3-Chloro-4-fluorophenyl)-N-ethyl-3-(6-methyl-4-(trifluoromethyl)-pyridin-2-yl)-2-oxooxazolidine-4-carboxamide]
